One molecule from EPA's ToxValDB 9.5 (doi:10.2903/j.efsa.2018.5467) can be followed below.

Values after ≈ are worked out from the molar mass of the structure shown. Where only a bound is given, the exact number is not on record here.

One data set concerns Apis mellifera. To be noted: acute, mortality.
The test system of a further data set is Bibionidae. The following applies: chronic/long-term; duration: 28 days; other.
Another data set concerns Colinus virginianus. The following applies: for LD50: acute, oral, mortality.
In the next data set the test system is Daphnia magna. The following applies: chronic/long-term; duration: 21 days; other.
The next data set has as its system Tagia sp. To be noted: chronic/long-term; duration: 56 days; reproduction.
For data set [1], the system named is Typhlodromus pyri. The following applies: chronic/long-term; reproduction.
The subject of data set [2] is Typhlodromus pyri. As to the kind of experiment: LR50; higher = less toxic. To be noted: acute; mortality.

`C#CCOC(=O)[C@@H](C)Oc1ccc(Oc2ncc(Cl)cc2F)cc1` [Clodinafop-propargyl]: the LD50 was more than 271 µg/piece with Apis mellifera (dermal); more than 104 µg/piece in the data set on Apis mellifera (oral, unspecified); more than 1040 mg/kg-day in the data set with Colinus virginianus (duration: 5 days, diet); 1460 mg/kg-day in the data set with Colinus virginianus; more than 1390 mg/kg-day with Rattus norvegicus (acute, oral, mortality). Moreover, the NOEC in the data set on Bibionidae amounted to 1.2 mg/L; with Colinus virginianus (reproduction developmental), 48.9 mg/kg-day; with Daphnia magna, 0.23 mg/L; in the data set with Lepomis macrochirus (chronic/long-term, duration: 33 days, other), 0.024 mg/L; in the data set with Tagia sp., 5 mg/kg; in the data set with Typhlodromus pyri [1], 90 g/ha. Also, the LC50 – broadly, the concentration that kills 50% of the test population – in the data set on Lepomis macrochirus (acute, duration: 96 hours, mortality) amounted to 0.21 µg/mL (≈ 0.6 µM). In addition, the NOAEL – broadly, the highest tested level that showed no adverse finding – in the data set with Rattus norvegicus (chronic, duration: 2 years, clinical chemistry) came out at 0.03 mg/kg-day; with Rattus norvegicus (developmental, development) it was 5 mg/kg-day; in the data set on Rattus norvegicus (reproduction developmental, body weight), 3.4 mg/kg-day. In addition, the LR50 in the data set on Typhlodromus pyri [2] is more than 90 g/ha.
